Measurements taken from patent publication US11352322B2, “Cyclopropyl-amide compounds as dual LSD1/HDAC inhibitors” (Jubilant Epicore LLC, priority 2016, dated 2022).
Where a name gives a salt, the structure may show the parent alone. Read-outs that look alike come from different tables or passages of the source.

How the values were obtained:
[1] = target: HDAC6 human recombinant enzyme (Homo sapiens (Human), UniProt Q9UBN7); experiment: Histone Deacetylase Assay (BPS Biosciences), HDAC6; assay type: biochemical
Text: Histone Deacetylase Assay (BPS Biosciences)
Histone deacetylase assay was done as per manufacturer's instructions.

MM1S = experiment: Anticancer activity: Alamar Blue assay, MM1S; assay type: cell-based; details: Homo sapiens, MM1.S, read-out: MM1S EC50
Description: Cells were seeded at 5000 cells/per well in 96-well tissue culture plate and incubated at 37° C./5% CO2. After 16-24 hours, fresh media was added to the wells. Compounds were then (1% DMSO conc.) added to the cells at 10 concentrations ranging from 10-0.0005 uM prepared in 3-fold serial dilutions. Cells were incubated for 68-72 h at 37° C./5% CO2. Alamar Blue™ reagent was added and incubated for 1-3 hours at 37° C./5% CO2. Plates were read on fluorescence reader at 540 nm excitation, 590 nm emission wave lengths.

LSD1 = LSD1 (Homo sapiens (Human), UniProt O60341); experiment: TR-FRET Assay for LSD1; details: read-out: LSD1 IC50
Description: TR-FRET Assay for LSD1 (Perkin Elmer)
Tranylcypromine (TCP), LSD1 inhibitor was procured from Selleckchem. […] Stop Solution containing 300 μM tranylcypromine in 1× LANCE Detection Buffer was added to the wells and incubated for 5 min at RT. Then, Detection mix containing 2 nM Eu-Ab and 50 nM ULight-Streptavidin in 1× LANCE Detection Buffer was prepared and added to the reaction mix. This mixture was incubated for 1 hour at room temperature.

[2] = Metabolic stability in liver microsomes, HLM; details: 1 μM, NADPH
Description: (§1) The microsomal suspension was prepared by adding liver microsomes to 100 mM potassium phosphate buffer (pH7.4) to give a final protein concentration of 0.5 mg/mL. The stock solution of NCE (10 mM in DMSO) was added to the microsomes to provide a final concentration of 1 μM. […] Samples were vortexed and centrifuged at 5,000 rpm for 10 min to remove proteins. Supernatant were analyzed on LC-MS/MS.

[3] = Metabolic stability in liver microsomes, MLM; details: 1 μM, NADPH
Description: as §1

Chain of HDAC6 human recombinant enzyme (Q9UBN7 whole entry): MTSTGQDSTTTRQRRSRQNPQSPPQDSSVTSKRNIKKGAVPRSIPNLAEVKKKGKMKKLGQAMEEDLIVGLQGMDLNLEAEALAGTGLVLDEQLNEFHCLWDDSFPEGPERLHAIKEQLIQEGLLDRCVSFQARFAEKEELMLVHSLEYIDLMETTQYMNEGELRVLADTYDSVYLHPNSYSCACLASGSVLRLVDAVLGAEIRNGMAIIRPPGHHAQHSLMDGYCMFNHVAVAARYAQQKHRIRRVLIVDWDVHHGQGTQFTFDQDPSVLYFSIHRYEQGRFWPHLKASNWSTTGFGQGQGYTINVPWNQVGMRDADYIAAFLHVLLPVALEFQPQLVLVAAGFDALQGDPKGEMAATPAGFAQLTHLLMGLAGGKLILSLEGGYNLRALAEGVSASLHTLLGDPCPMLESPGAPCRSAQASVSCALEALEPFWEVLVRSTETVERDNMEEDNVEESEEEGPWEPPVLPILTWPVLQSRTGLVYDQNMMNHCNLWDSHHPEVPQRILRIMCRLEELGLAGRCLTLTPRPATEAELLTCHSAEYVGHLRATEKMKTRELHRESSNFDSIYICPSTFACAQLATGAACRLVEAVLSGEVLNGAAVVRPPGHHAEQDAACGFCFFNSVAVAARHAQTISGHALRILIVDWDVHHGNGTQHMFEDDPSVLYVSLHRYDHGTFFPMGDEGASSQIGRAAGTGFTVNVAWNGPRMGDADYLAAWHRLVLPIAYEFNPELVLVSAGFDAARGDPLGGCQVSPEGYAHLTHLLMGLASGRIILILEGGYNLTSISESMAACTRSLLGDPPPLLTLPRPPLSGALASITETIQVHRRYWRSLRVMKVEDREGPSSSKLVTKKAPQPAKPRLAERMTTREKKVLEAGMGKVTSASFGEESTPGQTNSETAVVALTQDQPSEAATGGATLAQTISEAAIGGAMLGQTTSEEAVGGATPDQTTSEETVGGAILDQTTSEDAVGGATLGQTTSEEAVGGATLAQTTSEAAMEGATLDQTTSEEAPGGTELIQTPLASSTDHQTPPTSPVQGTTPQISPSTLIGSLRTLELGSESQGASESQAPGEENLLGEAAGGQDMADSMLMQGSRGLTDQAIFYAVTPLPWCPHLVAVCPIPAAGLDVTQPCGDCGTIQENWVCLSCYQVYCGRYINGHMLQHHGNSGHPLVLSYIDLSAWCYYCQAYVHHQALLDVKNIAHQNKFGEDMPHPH

| SMILES | IC50 [1] | EC50 (MM1S; MM1S cells) | IC50 (LSD1) | EC50 (MM1S) | Metabolic stability HLM % remaining in 30 min [2] | Metabolic stability MLM % remaining in 30 min [3] |
| --- | --- | --- | --- | --- | --- | --- |
| O=C(NO)c1ccc(C(=O)NCCN2CCC(CNC3CC3c3ccccc3)CC2)cc1 (stereo not shown) [Example 89, N-hydroxy-N4-(2-(4-(((2-phenylcyclopropyl)amino)methyl)piperidin-1-yl)ethyl)terephthalamide TFA Salt] | 720 nM | 311 nM | 20 nM | – | – | – |
| O=C(NO)c1ccc(CCCn2cc(CNC3CC3c3ccccc3)nn2)cc1 (stereo not shown) [Example 77, N-hydroxy-4-(3-(4-(((2-phenylcyclopropyl)amino)methyl)-1H-1,2,3-triazol-1-yl)propyl)benzamide TFA Salt] | 71 nM | 70 nM | 65 nM | – | – | – |
| O=C(NO)c1ccc(CCCn2cc(CNC3CC3c3ccccc3)cn2)cc1 (stereo not shown) [Example 76, N-hydroxy-4-(3-(4-(((2-phenylcyclopropyl)amino)methyl)-1H-pyrazol-1-yl)propyl)benzamide TFA Salt] | 22 nM | 42 nM | 84 nM | – | – | – |
| Nc1ccccc1NC(=O)c1ccc(S(=O)(=O)N2CCC(CNC3CC3c3ccccc3)CC2)cc1 (stereo not shown) [Example 160, N-(2-aminophenyl)-4-((4-(((2-phenylcyclopropyl)amino)methyl)piperidin-1-yl)sulfonyl)benzamide TFA Salt] | > 10000 nM | 178 nM | 43 nM | – | – | – |
| Cc1noc(C)c1-c1ccc(C2CC2NCC2CCN(Cc3ccc(C(=O)NO)cc3)CC2)cc1 (stereo not shown) [Example 37, 4-((4-(((2-(4-(3,5-dimethylisoxazol-4-yl)phenyl)cyclopropyl)amino)methyl)piperidin-1-yl)methyl)-N-hydroxybenzamide TFA salt] | – | – | 43 nM | 1730 nM | 86% | 55% |
| Nc1ccccc1NC(=O)c1coc(CCCN2CCC(CNC3CC3c3ccccc3)CC2)n1 (stereo not shown) [Example 153, N-(2-aminophenyl)-2-(3-(4-(((2-phenylcyclopropyl)amino)methyl)piperidin-1-yl)propyl)oxazole-4-carboxamide TFA Salt] | > 10000 nM | 571 nM | 24 nM | – | – | – |
| O=C(NO)c1ccc(OCCN2CCC(CNC3CC3c3ccc(F)cc3)CC2)nc1 (stereo not shown) [Example 96, 6-(2-(4-(((2-(4-fluorophenyl)cyclopropyl)amino)methyl)piperidin-1-yl)ethoxy)-N-hydroxynicotinamide TFA Salt] | – | – | 22 nM | > 10000 nM | 93% | 89% |
| Cc1noc(C)c1-c1ccc(C2CC2NCC2CCN(C(=O)/C=C/c3ccc(C(=O)NO)cc3)CC2)cc1 (stereo not shown) [Example 116, (E)-4-(3-(4-(((2-(4-(3,5-dimethylisoxazol-4-yl)phenyl)cyclopropyl)amino)methyl)piperidin-1-yl)-3-oxoprop-1-en-1-yl)-N-hydroxybenzamide TFA Salt] | – | – | 69 nM | 157 nM | 63% | 50% |
| O=C(NO)c1ccc(CCCC2CCN(C(=O)CNC3CC3c3ccccc3)CC2)cc1 (stereo not shown) [Example 93, N-hydroxy-4-(3-(1-(2-((2-phenylcyclopropyl)amino)acetyl)piperidin-4-yl)propyl)benzamide TFA Salt] | 187 nM | 1040 nM | 72 nM | – | – | – |
| O=C(NO)c1ccc2c(c1)CN(C(=O)CCCN1CCC(CNC3CC3c3ccccc3)CC1)C2 (stereo not shown) [Example 109, N-hydroxy-2-(4-(4-(((2-phenylcyclopropyl)amino)methyl)piperidin-1-yl)butanoyl)isoindoline-5-carboxamide TFA Salt] | 107 nM | 1100 nM | 24 nM | – | – | – |
| Nc1ccccc1NC(=O)c1ccc(Cn2cc(CNC3CC3c3ccccc3)cn2)cc1 (stereo not shown) [Example 145, N-(2-aminophenyl)-4-((4-(((2-phenylcyclopropyl)amino)methyl)-1H-pyrazol-1-yl)methyl)benzamide TFA Salt] | > 10000 nM | 123 nM | 61 nM | – | – | – |
| CC(C)n1cc(C2CC2NCC2CCN(CCCc3ccc(C(=O)NO)cc3)CC2)cn1 (stereo not shown) [Example 67, N-hydroxy-4-(3-(4-(((2-(1-isopropyl-1H-pyrazol-4-yl)cyclopropyl)amino)methyl)piperidin-1-yl)propyl)benzamide TFA Salt] | 272 nM | 70 nM | 484 nM | – | – | – |
| O=C(NO)C1CCC(NC2CC2c2ccccc2)CC1 (stereo not shown) [Example 33, 4-(2-Phenyl-cyclopropylamino)-cyclohexanecarboxylic Acid Hydroxyamide TFA Salt] | > 1000 nM | – | 2250 nM | – | – | – |
| Cc1noc(C)c1-c1ccc(C2CC2NCC2CCN(Cc3ccc(C(=O)NO)cn3)CC2)cc1 (stereo not shown) [Example 39, 6-((4-(((2-(4-(3,5-dimethylisoxazol-4-yl)phenyl)cyclopropyl)amino)methyl)piperidin-1-yl)methyl)-N-hydroxynicotinamide TFA Salt] | – | – | 34 nM | 2970 nM | 87% | > 95% |
| O=C(NO)c1ccc(CNC2CC2c2ccccc2)cc1 (stereo not shown) [Example 28, N-hydroxy-4-(((2-phenylcyclopropyl)amino)methyl)benzamide TFA Salt] | – | – | 23 nM | – | 73% | 35% |
| N#Cc1ccc(-c2ccc(C3CC3NCC3CCN(CCCc4ccc(C(=O)NO)cc4)CC3)cc2)cc1 (stereo not shown) [Example 59, 4-(3-(4-(((2-(4′-cyano-[1,1′-biphenyl]-4-yl)cyclopropyl)amino)methyl)piperidin-1-yl)propyl)-N-hydroxybenzamide TFA Salt] | – | – | 32 nM | – | 76% | 75% |
| O=C(NO)c1ccc(CCCN2CCC(CNC3CC3c3ccc(F)c(F)c3)CC2)cc1 (stereo not shown) [Example 50, 4-(3-(4-(((2-(3,4-difluorophenyl)cyclopropyl)amino)methyl)piperidin-1-yl)propyl)-N-hydroxybenzamide TFA Salt] | – | – | 29 nM | 35 nM | 86% | 80% |
| O=C(NO)c1csc(CCCN2CCC(CNC3CC3c3ccc(-c4ccc(F)cc4)cc3)CC2)n1 (stereo not shown) [Example 111, 2-(3-(4-(((2-(4′-fluoro-[1,1′-biphenyl]-4-yl)cyclopropyl)amino)methyl)piperidin-1-yl)propyl)-N-hydroxythiazole-4-carboxamide TFA Salt] | – | – | 22 nM | 3060 nM | 95% | 91% |
| O=C(NO)c1ccc(N2CCC(CNC3CC3c3ccc(F)cc3)CC2)cc1 (stereo not shown) [Example 22, 4-(4-(((2-(4-fluorophenyl)cyclopropyl)amino)methyl)piperidin-1-yl)-N-hydroxybenzamide TFA Salt] | – | – | 6400 nM | 44 nM | 60% | 38% |
| Cn1cc(-c2ccc(C3CC3NCC3CN(CCCc4ccc(C(=O)NO)cc4)C3)cc2)cn1 (stereo not shown) [Example 63, N-hydroxy-4-(3-(3-(((2-(4-(1-methyl-1H-pyrazol-4-yl)phenyl)cyclopropyl)amino)methyl)azetidin-1-yl)propyl)benzamide TFA Salt] | – | – | 31 nM | 191 nM | 86% | 69% |
| O=C(NO)c1ccc(Cn2cc(CNC3CC3c3ccccc3)nn2)cc1 (stereo not shown) [Example 41, N-hydroxy-4-((4-(((2-phenylcyclopropyl)amino)methyl)-1H-1,2,3-triazol-1-yl)methyl)benzamide TFA Salt] | 74 nM | – | 319 nM | – | – | – |
| O=C(/C=C/c1ccc(CNC2CC2c2ccc(-c3cncnc3)cc2)cc1)NO (stereo not shown) [Example 7, (E)-N-hydroxy-3-(4-(((2-(4-(pyrimidin-5-yl)phenyl)cyclopropyl)amino)methyl)phenyl)acrylamide TFA Salt] | – | – | 27 nM | 48 nM | 70% | < 5% |
| O=C(NO)c1ccc(CN2CCC(CNC3CC3c3ccc(-c4cncnc4)cc3)CC2)cc1 (stereo not shown) [Example 38, N-hydroxy-4-((4-(((2-(4-(pyrimidin-5-yl)phenyl)cyclopropyl)amino)methyl)piperidin-1-yl)methyl)benzamide TFA Salt] | – | – | 53 nM | 3640 nM | 87% | > 95% |
| O=C(NO)c1ccc(CCCN2CCC(CNC3CC3c3ccc(C(=O)N4CCOCC4)cc3)CC2)cc1 (stereo not shown) [Example 53, N-hydroxy-4-(3-(4-(((2-(4-(morpholine-4-carbonyl)phenyl)cyclopropyl)amino)methyl)piperidin-1-yl)propyl)benzamide TFA Salt] | – | – | 22 nM | – | 89% | 82% |
| O=C(NO)c1ccc(CCC(=O)N2CCC(NC3CC3c3ccccc3)CC2)cc1 (stereo not shown) [Example 83, N-hydroxy-4-(3-oxo-3-(4-((2-phenylcyclopropyl)amino)piperidin-1-yl)propyl)benzamide TFA Salt] | – | – | 90 nM | 153 nM | 69% | 82% |
| O=C(NO)c1ccc(CS(=O)(=O)NCCN2CCC(CNC3CC3c3ccccc3)CC2)cc1 (stereo not shown) [Example 86, N-hydroxy-4-((N-(2-(4-(((2-phenylcyclopropyl)amino)methyl)piperidin-1-yl)ethyl)sulfamoyl)methyl)benzamide TFA Salt] | – | – | 18 nM | 676 nM | 71% | 58% |
